{
  "source": "the COVID Moonshot data (paper PMC7615835)",
  "note": "Several values for one entry are separate records, joined by “and”; a condition that tells them apart may be missing. Identical values can stand only once.",
  "data": [
    {"target": "SARS-CoV-2 Main Protease (SARS-CoV-2) (UniProt P0DTD1)", "values": [
      {"molecule": "O=C(c1cc(F)cc(F)c1)N1CCOc2cc(O)ccc2C1", "IC50": "> 99500 nM"},
      {"molecule": "CC(=O)c1ccc(N(C(=O)c2ccco2)C(C(=O)NCCc2cccc(F)c2)c2cccnc2)cc1", "note": "(stereo not drawn)", "IC50": "56300 nM"},
      {"molecule": "O=C(c1cc(=O)[nH]c2ccccc12)N1CCN(c2cccc(Cl)c2)CC1", "IC50": "2160 nM"},
      {"molecule": "O=C(Nc1ccccc1)[C@@H]1CN(C(=O)CCl)CCN1S(=O)(=O)c1ccsc1", "note": "(stereo in doubt)", "IC50": "716 nM"},
      {"molecule": "CC1(NC(=O)Cc2cccc(Cl)c2)CCNC1=O", "note": "(stereo not drawn)", "IC50": "> 99500 nM"},
      {"molecule": "O=C(NCc1ccccn1)[C@@H]1CN(C(=O)CCl)CCN1S(=O)(=O)c1ccsc1", "note": "(stereo in doubt)", "IC50": "542 nM"},
      {"molecule": "O=C(Nc1ccccc1)[C@H]1CN(C(=O)CCl)CCN1S(=O)(=O)c1ccsc1", "note": "(stereo in doubt)", "IC50": "386 nM"},
      {"molecule": "CN1CCN(c2cc(Cl)cc(CC(=O)Nc3cncc4ccccc34)c2)[C@H](c2ccccc2)C1", "note": "(stereo in doubt)", "IC50": "1810 nM"},
      {"molecule": "COC1CC2(C1)CC(N(C(=O)c1cocn1)C(C(=O)NCCc1cccc(F)c1)c1cccnc1)C2", "note": "(stereo not drawn)", "IC50": "> 99500 nM"},
      {"molecule": "CN(Cc1ccc(Cl)cc1)c1cc(Cl)cc(CC(=O)Nc2cncc3ccccc23)c1", "IC50": "2420 nM"},
      {"molecule": "O=C1CC(C(=O)Nc2cncc3ccccc23)c2cc(Cl)cc(Cl)c2N1", "note": "(stereo not drawn)", "IC50": "2450 nM and 3760 nM"},
      {"molecule": "COC1(C(=O)Nc2cncc3ccncc23)CCOc2ccc(Cl)cc21", "note": "(stereo not drawn)", "IC50": "832 nM"},
      {"molecule": "COc1ncc(Br)cc1Nc1cc(Cl)cc(CC(=O)Nc2cncc3ccccc23)c1", "IC50": "681 nM"},
      {"molecule": "Cc1ccncc1NC(=O)[C@H](C)OC(F)F", "note": "(stereo in doubt)", "IC50": "> 99500 nM"},
      {"molecule": "O=C(Cc1cccc(Cl)c1)Nc1cncc2cc(OCC(F)(F)F)ccc12", "IC50": "> 99500 nM"},
      {"molecule": "Cc1cccc2c(NC(=O)Cc3cccc(Cl)c3)cncc12", "IC50": "> 99500 nM"},
      {"molecule": "O=C(CN1CC(C(=O)Nc2cncc3cc(F)ccc23)c2cc(Cl)ccc2C1=O)NCC(F)(F)F", "note": "(stereo not drawn)", "IC50": "879 nM"},
      {"molecule": "COc1ccc(Nc2cc(Cl)cc(CC(=O)Nc3cncc4ccccc34)c2)c([N+](=O)[O-])c1", "IC50": "2120 nM"},
      {"molecule": "CC(C)(C)c1ccc(N(C(=O)c2cn3ccccc3n2)C(C(=O)NCCc2cccc(F)c2)c2cccnc2)cc1", "note": "(stereo not drawn)", "IC50": "18200 nM"},
      {"molecule": "N#Cc1ccccc1NC(=O)[C@@H](c1ccccc1)N1Cc2ccccc2C1=O", "note": "(stereo in doubt)", "IC50": "> 99500 nM"},
      {"molecule": "O=C(CN(C(=O)Cn1nnc2ccccc21)c1ccc(-c2ccccc2)cc1)N1CCNCC1", "IC50": "> 99500 nM"},
      {"molecule": "COc1ccccc1OCCNC(=O)c1cc(N)cc2ccccc12", "IC50": "> 99500 nM"},
      {"molecule": "O=C(Cc1cc(Cl)cc(N2CCc3ccccc3[C@H]2c2ccccc2)c1)Nc1cncc2ccccc12", "note": "(stereo in doubt)", "IC50": "2780 nM"},
      {"molecule": "Cn1ncc(C(=O)N(c2ccc(C(C)(C)C)cc2)C(C(=O)NCCc2cccc(F)c2)c2cccnc2)n1", "note": "(stereo not drawn)", "IC50": "17600 nM"},
      {"molecule": "O=C(NC1(C(=O)Nc2cncc3ccccc23)CCOc2ccc(Cl)cc21)C1CCC(C(=O)N2CCCC2)O1", "note": "(stereo not drawn)", "IC50": "2810 nM"},
      {"molecule": "O=C(Cc1cc(Cl)cc(NCc2ccc(Oc3ccccc3)cc2)c1)Nc1cncc2ccccc12", "IC50": "5820 nM"},
      {"molecule": "O=C1NCC(C(=O)Nc2cncc3cc(F)ccc23)c2cc(Cl)ccc21", "note": "(stereo not drawn)", "IC50": "1150 nM"},
      {"molecule": "O=C1N(c2cncc3ccccc23)CCC12CN(S(=O)(=O)CC1CS(=O)(=O)C1)Cc1ccc(Cl)cc12", "note": "(stereo not drawn)", "IC50": "353 nM"},
      {"molecule": "Cc1c(NC(=O)C2CCOc3ccc(Cl)cc32)cncc1N(C)C", "note": "(stereo not drawn)", "IC50": "> 99500 nM"},
      {"molecule": "CC(CCC(OC1OC(COC2OC(CO)C(O)C(O)C2O)C(O)C(O)C1O)C(C)(C)O)C1CCC2(C)C3CC=C4C(CCC(O)C4(C)C)C3(C)C(O)CC12C", "note": "(stereo not drawn)", "IC50": "> 99500 nM"},
      {"molecule": "COc1ccc2n[nH]c(NC(=O)Cc3cccc(Cl)c3)c2c1", "IC50": "> 99500 nM"},
      {"molecule": "Cc1ccc2cncc(NC(=O)Cc3cccc(Cl)c3)c2c1", "IC50": "537 nM"},
      {"molecule": "CC(CNc1ccc2nnnn2n1)c1nc2ccccc2s1", "note": "(stereo not drawn)", "IC50": "> 99500 nM"},
      {"molecule": "COc1ccc(Cl)c(Nc2cc(Cl)cc(CC(=O)Nc3cncc4ccccc34)c2)c1", "IC50": "1700 nM"},
      {"molecule": "COc1ccccc1N(C(=O)c1ccco1)C(C(=O)NCCc1cccc(F)c1)c1cccnc1", "note": "(stereo not drawn)", "IC50": "> 99500 nM"},
      {"molecule": "O=C(Cc1cc(Cl)cc(NCCc2ccccc2C(F)(F)F)c1)Nc1cncc2ccccc12", "IC50": "2970 nM"},
      {"molecule": "CS(=O)(=O)c1ccc2c(NC(=O)C3CN(CC(=O)NCC4CC4)C(=O)c4ccc(Cl)cc43)cncc2c1", "note": "(stereo not drawn)", "IC50": "179 nM and 174 nM"},
      {"molecule": "O=C(Cc1cc(Cl)cc(Nc2ccc(-c3ccccn3)cc2)c1)Nc1cncc2ccccc12", "IC50": "1670 nM"},
      {"molecule": "Cc1ccccc1C(C)N(C(=O)c1cnc[nH]1)C(C(=O)NCCc1cccc(F)c1)c1cccnc1", "note": "(stereo not drawn)", "IC50": "> 99000 nM"},
      {"molecule": "O=C(Cc1cc(Cl)cc(Nc2ccc(O)cc2[N+](=O)[O-])c1)Nc1cncc2ccccc12", "IC50": "5330 nM"},
      {"molecule": "COC(=O)C(C(=O)Nc1cnccc1C)c1cccc(Cl)c1", "note": "(stereo not drawn)", "IC50": "23700 nM"},
      {"molecule": "CCN1CCN(c2ccc(Nc3cc(Cl)cc(CC(=O)Nc4cncc5ccccc45)c3)cc2)CC1", "IC50": "4300 nM"},
      {"molecule": "CC(C)(C)c1ccc(N(C(=O)c2ccncc2)C(C(=O)NCCc2cccc(F)c2)c2cccnc2)cc1", "note": "(stereo not drawn)", "IC50": "> 99500 nM"},
      {"molecule": "O=C(c1cccc(N2CCCNC2=O)c1)N1CCC(C2CCNC2)CC1", "note": "(stereo not drawn)", "IC50": "> 99500 nM"},
      {"molecule": "O=C(Oc1cncc2ccccc12)C1CCOc2ccc(Cl)cc21", "note": "(stereo not drawn)", "IC50": "522 nM"},
      {"molecule": "O=C(Cc1cccnc1)Nc1cccc(OC2CC(=O)N2)c1", "note": "(stereo not drawn)", "IC50": "82600 nM and 94400 nM"},
      {"molecule": "O=c1c(O[C@@H]2O[C@H](CO)[C@H](O)[C@H](O)[C@H]2O)c(-c2ccc(O)c(O)c2)oc2cc(O)cc(O)c12", "note": "(stereo in doubt)", "IC50": "> 99500 nM"},
      {"molecule": "O=C(Cc1cccc(Cl)c1)Nc1cccc2cn[nH]c12", "IC50": "> 99500 nM"}
    ]}
  ]
}
